Source: US20230000813A1, “COMPOUND FOR THE TREATMENT OF BOVINE OR SWINE RESPIRATORY DISEASE” (Intervet Inc., priority 2016, published 2023)
≈ marks a conversion by molar mass, not a printed value.

Assays:
Experiment in all cases: MIC, broth-microdilution (CLSI VET01-A4)
Type in all cases: cell-based
[1] = system: Mannheimia haemolytica MH 12587 (1071, BRD field isolate, macrolide-resistance: erm+, E+); details: Mannheimia haemolytica MH 12587, macrolide-resistant
Description: (§1) The Minimum inhibitory concentrations (MIC) of compounds according to the invention for a number of veterinary bacterial pathogens were determined by the broth-microdilution method according to CLSI document VET01-A4.
(§2) Microdilution trays containing a doubling dilution series of the test compound were used for the tests. The MIC results were interpreted according to the CLSI documents VET01-S3. The lowest concentration of compound at which no visible growth (i.e. no turbidity) detected by the unaided eye was recorded as the MIC.
(§3) The Minimum inhibitory concentrations (MIC) of compounds according to the invention were determined by the broth-microdilution method according to CLSI document VET01-A4.
(§4) Microdilution trays containing a doubling dilution series of the test compound were used for the tests.
(§5) The MIC results were interpreted according to the CLSI documents VET01-S3. The lowest concentration of compound at which no visible growth (i.e. no turbidity) detected by the unaided eye was recorded as the MIC.

[2] = system: Mannheimia haemolytica MH 6357 (M7/2, reference strain, cattle infection strain); details: Mannheimia haemolytica MH 6357; read-out: MIC MH 6357
Description: as §1, §2, §3, §4, §5

[3] = system: Pasteurella multocida PM 6391 (ATCC 43137, reference strain); details: Pasteurella multocida PM 6391; for MIC: read-out: MIC PM 6391
Description: as §1, §2, §3, §4, §5

[4] = system: Mannheimia haemolytica MH 10720 (154, BRD field isolate); details: Mannheimia haemolytica MH 10720; for MIC: read-out: MIC MH 10720
Description: as §1, §2, §3, §4, §5

[5] = system: Pasteurella multocida PM 12080 (IV102277-0093, BRD field isolate); details: Pasteurella multocida PM 12080
Description: as §1, §2, §3, §4, §5

[6] = system: Mannheimia haemolytica MH 6374 (ATCC 33396, reference strain); details: Mannheimia haemolytica MH 6374; read-out: MIC MH 6374
Description: as §1, §2, §3, §4, §5

[7] = system: Mannheimia haemolytica MH 13093 (XB0472-6014.1, BRD field isolate)
Description: as §1, §2

[8] = system: Mannheimia haemolytica MH 13065 (XB0446-6003.9, BRD field isolate)
Description: as §1, §2

[9] = system: Pasteurella multocida PM 6267 (P 2225 (L386), reference strain, mouse infection strain); details: Pasteurella multocida PM 6267; read-out: MIC PM 6267
Description: as §1, §2, §3, §4, §5

Row | SMILES | MIC MH 12587 [1] | MIC [2] | MIC [3] | MIC [4] | MIC PM 12080 [5] | MIC [6] | MIC [7] | MIC [8] | MIC [9] | MIC ([5]; read-out: MIC PM 12080) | MIC PM 6391 [3] | MIC MH 10720 [4]
1 | COCCNCc1ccc(C#Cc2ccc(C(=O)NC(C(=O)NO)C(C)(C)N)cc2)s1 (stereo not shown) [Compound 523] | 1.6 µM (≈ 0.711 µg/mL) | 1.6 µM (≈ 0.711 µg/mL) | 0.2 µM (≈ 0.0889 µg/mL) | 0.4 µM (≈ 0.178 µg/mL) | <=0.1 μM | 0.8 µM (≈ 0.356 µg/mL) | 1.6 µM (≈ 0.711 µg/mL) | 1.6 µM (≈ 0.711 µg/mL) | – | – | – | –
2 | CC(C)(N)C(NC(=O)c1ccc(C#Cc2ccc(CNCc3ccccc3)s2)cc1)C(=O)NO (stereo not shown) [Compound 525] | 1.6 µM (≈ 0.763 µg/mL) | 0.8 µM (≈ 0.381 µg/mL) | 0.2 µM (≈ 0.0953 µg/mL) | 0.2 µM (≈ 0.0953 µg/mL) | <=0.1 μM | 0.4 µM (≈ 0.191 µg/mL) | 0.8 µM (≈ 0.381 µg/mL) | 0.8 µM (≈ 0.381 µg/mL) | 1.6 µM (≈ 0.763 µg/mL) | – | – | –
3 | COc1ccc(CNCc2ccc(C#Cc3ccc(C(=O)NC(C(=O)NO)C(C)(C)N)cc3)s2)cc1 (stereo not shown) [Compound 526] | 1.6 µM (≈ 0.811 µg/mL) | 0.8 µM (≈ 0.405 µg/mL) | 0.2 µM (≈ 0.101 µg/mL) | 0.2 µM (≈ 0.101 µg/mL) | – | 0.4 µM (≈ 0.203 µg/mL) | 1.6 µM (≈ 0.811 µg/mL) | 0.8 µM (≈ 0.405 µg/mL) | 1.6 µM (≈ 0.811 µg/mL) | 0.2 µM (≈ 0.101 µg/mL) | – | –
4 | CC(C)(N)C(NC(=O)c1ccc(C#Cc2ccc(CNCc3ccncc3)s2)cc1)C(=O)NO (stereo not shown) [Compound 527] | 0.8 µM (≈ 0.382 µg/mL) | 0.8 µM (≈ 0.382 µg/mL) | – | 0.2 µM (≈ 0.0955 µg/mL) | <=0.1 μM | 0.8 µM (≈ 0.382 µg/mL) | 1.6 µM (≈ 0.764 µg/mL) | 0.8 µM (≈ 0.382 µg/mL) | 1.6 µM (≈ 0.764 µg/mL) | – | <=0.1 μM | –
5 | CC(C)(N)C(NC(=O)c1ccc(C#Cc2ccc(CNCc3cccnc3)s2)cc1)C(=O)NO (stereo not shown) [Compound 532] | 1.6 µM (≈ 0.764 µg/mL) | 1.6 µM (≈ 0.764 µg/mL) | – | 0.2 µM (≈ 0.0955 µg/mL) | <=0.1 μM | 0.8 µM (≈ 0.382 µg/mL) | 1.6 µM (≈ 0.764 µg/mL) | 0.8 µM (≈ 0.382 µg/mL) | 1.6 µM (≈ 0.764 µg/mL) | – | <=0.1 μM | –
6 | CC(C)(N)C(NC(=O)c1ccc(C#Cc2ccc(CNCc3ccnc(Cl)c3)s2)cc1)C(=O)NO (stereo not shown) [Compound 533] | 1.6 µM (≈ 0.819 µg/mL) | 0.8 µM (≈ 0.41 µg/mL) | 0.2 µM (≈ 0.102 µg/mL) | 0.2 µM (≈ 0.102 µg/mL) | <=0.1 μM | 0.8 µM (≈ 0.41 µg/mL) | 0.8 µM (≈ 0.41 µg/mL) | 0.8 µM (≈ 0.41 µg/mL) | 1.6 µM (≈ 0.819 µg/mL) | – | – | –
7 | CC(C)(N)C(NC(=O)c1ccc(C#Cc2ccc(CNCc3ccccn3)s2)cc1)C(=O)NO (stereo not shown) [Compound 534] | 1.6 µM (≈ 0.764 µg/mL) | 0.8 µM (≈ 0.382 µg/mL) | – | 0.2 µM (≈ 0.0955 µg/mL) | <=0.1 μM | 0.8 µM (≈ 0.382 µg/mL) | 1.6 µM (≈ 0.764 µg/mL) | 0.8 µM (≈ 0.382 µg/mL) | 1.6 µM (≈ 0.764 µg/mL) | – | <=0.1 μM | –
8 | CC(C)(N)C(NC(=O)c1ccc(C#Cc2ccc(CNCc3ccco3)s2)cc1)C(=O)NO (stereo not shown) [Compound 535] | 0.8 µM (≈ 0.373 µg/mL) | 0.8 µM (≈ 0.373 µg/mL) | – | – | <=0.1 μM | 0.2 µM (≈ 0.0933 µg/mL) | 0.8 µM (≈ 0.373 µg/mL) | 0.4 µM (≈ 0.187 µg/mL) | 0.8 µM (≈ 0.373 µg/mL) | – | <=0.1 μM | <=0.1 μM
9 | CC(C)(N)C(NC(=O)c1ccc(C#Cc2ccc(CNCc3cccs3)s2)cc1)C(=O)NO (stereo not shown) [Compound 536] | 0.8 µM (≈ 0.386 µg/mL) | 0.8 µM (≈ 0.386 µg/mL) | – | – | <=0.1 μM | 0.2 µM (≈ 0.0965 µg/mL) | 0.8 µM (≈ 0.386 µg/mL) | 0.4 µM (≈ 0.193 µg/mL) | 0.8 µM (≈ 0.386 µg/mL) | – | <=0.1 μM | <=0.1 μM
10 | Cc1ccc(CNCc2ccc(C#Cc3ccc(C(=O)NC(C(=O)NO)C(C)(C)N)cc3)s2)cc1 (stereo not shown) [Compound 537] | 1.6 µM (≈ 0.785 µg/mL) | 0.8 µM (≈ 0.393 µg/mL) | 0.2 µM (≈ 0.0981 µg/mL) | 0.2 µM (≈ 0.0981 µg/mL) | <=0.1 μM | 0.8 µM (≈ 0.393 µg/mL) | 1.6 µM (≈ 0.785 µg/mL) | 0.8 µM (≈ 0.393 µg/mL) | 1.6 µM (≈ 0.785 µg/mL) | – | – | –
11 | CC(C)(C(NC(=O)c1ccc(C#Cc2ccc(CNC3CC3)cc2)cc1)C(=O)NO)[N+](=O)[O-] (stereo not shown) [Compound 554] | 0.8 µM (≈ 0.36 µg/mL) | 0.4 µM (≈ 0.18 µg/mL) | – | – | <=0.1 μM | 0.4 µM (≈ 0.18 µg/mL) | 0.4 µM (≈ 0.18 µg/mL) | 0.4 µM (≈ 0.18 µg/mL) | 0.4 µM (≈ 0.18 µg/mL) | – | – | <=0.1 μM
